Data from patent US20220062300A1 (priority 2019, published 2022).

Experiments:
[1] = system: formalin-induced pain behavior; test: Formalin test (1% formalin, hind paw shakes) with isobologram analysis; type: in vivo; details: IM, rat; for dose giving maximal antinociception effect: both phases of the formalin test; for dose reaching a significant difference in % antinociception: phase 2 of the formalin test; for ED30 (dose delivering 30% of the maximal effect): single drug, 60 min before formalin, % antinociception
Excerpt: Male Wistar rats aged 7-8 weeks weighting 175-199 g were used in the experiments. Rats had free access to food and water before the experiments. All experimental procedures complied with the Guidelines on Ethical Standards for investigations of Experimental Pain in Animals (IASP, 1983). Each rat was used only once and was sacrificed in a CO2-saturated glass bell. The formalin model is used mainly with rodents. The test consists in the subcutaneous administration of formalin (formaldehyde in concentrations ranging from 1 to 5%), in a 20-25 μL volume for mice 30-100 μL for rats. The injection is usually administered in the dorsal surface of the right hind paw, and animals are sacrificed once the test is finished. The formalin test describes several behaviors, such as biting, licking and shaking the injected hind paw. Hind paw shaking is the most used parameter for quantifying the degree of pain. The formalin test in rodents is biphasic. […] The second phase (tonic or inflammatory) onsets 15-20 minutes after the injection and lasts 20-40 minutes. The 1%-formalin injection induced the typical shaking behavior, characterized by a brisk withdrawal or bending of the injected hind paw. The temporal course was assessed in this figure after the 1%-formalin injection, and the biphasic (phase 1 and 2) behavior characterizing this model was observed. An isobologram analysis was employed to assess aceclofenac and betamethasone interactions. […] When connecting the dots an additivity line is obtained, useful to establish the type of interaction of both compounds under study. Dose-response curves (DRC) are constructed to obtain the ED30's of each active principle. At least 4 doses of each active principle are administered by IM injection to at least 6 animals. […] Before the test, the drugs were diluted and mixed for intramuscular administration. […] This dose was statistically compared to the dose that theoretically is the simple addition of effects, and which can be obtained with the following formula: […] Where R is the potency ratio of drugs 1 and 2 administered alone; P1 is the proportion of drug 1 in the mixture; P2 is the proportion of drug 2 in the mixture. […] The interaction type is determined by the graph region where the experimental value is located in relation to the theoretical value. If the value lies below the additivity line and is statistically different from the theoretical value, then the interaction is synergic (an effect greater than the sum of effects of each drug); if the value lies near the additivity line and is not statistically different from the theoretical value, then the interaction is only additive (an effect equal to the sum of effects of each drug). If the value lies […] and is statistically different from the theoretical value, then the interaction is subadditive or antagonistic. A software calculates the interaction index (I.I.) of two drugs, obtained with the following formula: I.I.=Experimental ED30/theoretical ED30 If the index is less than 1.0, then the interaction is synergic; if it is equal to 1.0, the interaction is additive, and if it is greater than 1.0, the interaction is antagonistic. For twelve hours before the experimental preclinical phase, rats fasted but had free access to water. […] The results are expressed as the average±standard error (SE) of at least 6 rats per group. The number of hind paw shakes/minute was graphed vs. time. The area under the curve (AUC) of temporal courses is a global expression of the effect intensity and duration, and was calculated with the trapezoid method. The antinoception percentage (%) was calculated with the following formula: % Antinociception=((Vehicle-Compound)/Vehicle)×100. The AUC's and % antinociception were evaluated by means of an analysis of variance (ANOVA) and a Tukey's test. Results with P<0.05 were considered statistically significant.

[2] = cited from earlier work

| SMILES | dose giving maximal antinociception effect [1] | dose reaching a significant difference in % antinociception [1] | number of shakes in phase 2 of the formalin test, expressed as % antinociception [1] | ED30 (dose delivering 30% of the maximal effect) [1] | ED30 (dose delivering 30% of the maximal effect) ([1]; listed as aceclofenac) | ED30 (dose delivering 30% of the maximal effect) ([1]; listed as betamethasone) | solubility in water [2] |
| --- | --- | --- | --- | --- | --- | --- | --- |
| O=C(O)COC(=O)Cc1ccccc1Nc1c(Cl)cccc1Cl [Aceclofenac, [(2-{2,6-dichlorophenyl)amino}phenylacetooxyacetic acid]] | 31.6 mg/kg | 17.7 mg/kg | decreased in a dose-dependent way | 1.8662 mg/kg | 13.472 mg/kg |  |  |
| C[C@H]1C[C@H]2[C@@H]3CCC4=CC(=O)C=C[C@]4(C)[C@@]3(F)[C@@H](O)C[C@]2(C)[C@@]1(O)C(=O)CO [Betamethasone, (11β,16β)-9-Fluoro-11,17,21-trihydroxy-16-methylpregna-1,4-diene-3,20-dione] | 31.6 mg/kg | 17.7 mg/kg | decreased in a dose-dependent way | 13.4722 mg/kg |  | 13.472 mg/kg | insoluble in water |
